Results on twelve compounds are retold here after US5550110A, “Endothelin Antagonists II” (Warner-Lambert Company, priority 1994, dated 1996).

The target in assay [1] is T1, endothelin receptor (ETB), rat cerebellar membranes (Rattus norvegicus, UniProt P21451).
T1 construct: thaw one aliquot of frozen rat cerebellar membranes (2 mg protein in 0.5 mL); from tissue; host or cells: rat cerebellum (membranes)
T1 sequence (P21451 27-442): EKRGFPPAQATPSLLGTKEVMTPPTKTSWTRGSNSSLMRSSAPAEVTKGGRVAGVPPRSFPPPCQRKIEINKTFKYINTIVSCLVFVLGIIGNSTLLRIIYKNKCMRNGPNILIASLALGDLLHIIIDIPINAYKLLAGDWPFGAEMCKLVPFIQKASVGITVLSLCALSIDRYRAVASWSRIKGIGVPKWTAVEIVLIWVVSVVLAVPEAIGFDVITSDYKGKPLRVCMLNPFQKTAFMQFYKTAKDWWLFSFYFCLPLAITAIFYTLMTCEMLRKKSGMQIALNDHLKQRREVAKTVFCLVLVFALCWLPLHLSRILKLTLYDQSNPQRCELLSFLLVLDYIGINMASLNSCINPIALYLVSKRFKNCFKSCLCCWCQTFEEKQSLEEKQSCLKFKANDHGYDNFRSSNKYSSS
Briefly: Endothelin Receptor Binding Assay-B (ERBA-B), [125I]-ET-1 binding in rat cerebellar membranes. The following applies: [125I]-ET-1 25 pM, read-out: ERRA-B IC50. The method, then:
Endothelin Receptor Binding Assay-B (ERBA-B) [^125 I]-ET-1 Binding in Rat Cerebellar Membranes
The tissue is made up of 20 mM tris(hydroxymethyl)aminomethane hydrochloride (Trizma) buffer, 2 mM ethylenediaminetetra acetate, 100 μM phenylmethylsulfonyl fluoride.
First, thaw one aliquot of frozen rat cerebellar membranes (2 mg protein in 0.5 mL). Next, add 0.5 mL membrane aliquot to 4.5 mL cold tissue buffer, polytron at 7,500 revolutions per minute for 10 seconds. Finally, dilute tissue suspension 1/100 (0.1 mL suspension+9.9 mL tissue buffer), polytron again, and place ice.
Medium 199 with Hank's salts plus 25 mM Hepes+1 mg/mL bovine serum albumin.
Amersham [^125 I]-ET-1 (aliquots of 2×10^6 cpm per […] aliquot of [^125 I]-ET-1 with 5.2 mL dilution buffer, place on ice until use (final concentration will be 20,000 cpm per tube, or 25 pM).
Add 50 μL each of cold [^125 ]-ET-1 and competing ligand to tubes on ice. Mix in 150 μL of tissue to each tube, vortex briefly, then tap to force all liquids to bottom (total assay volume=250 μL). Then place the tubes in a 37° C. water bath for 2 hours.
Add 2.5 mL cold wash buffer (50 mM Trizma buffer) to each tube, filter, and then wash tube with additional 2.5 mL wash buffer and add to filter. Finally, wash filters with an additional 2.5 mL of cold wash buffer.
Count filters for radioactivity in gamma counter.

Assay [2] relates to endothelin receptor (ETA), rabbit renal artery vascular smooth muscle cells. Briefly: Endothelin Receptor Binding Assay-A (ERBA-A), intact cell binding of [125I]-ET-1. The following applies: [125I]-ET-1 25 pM. On the procedure: The compounds of Formula I are valuable antagonists of endothelin. […] Thus, the compounds of Formula I were tested for their ability to inhibit [^125 I]-ET-1([^125 I]-Endothelin-1) binding in a receptor assay according to the following procedures: Endothelin Receptor Binding Assay-A (ERBA-A) Intact Cell Binding of [^125 I]-ET-1 The cells used were rabbit renal artery vascular smooth muscle cells grown in a 48-well dish (1 cm^2) (confluent cells). The assay buffer was a medium 199 containing Hanks salts and 25 mM Hepes buffer (Gibco 380-2350AJ), supplemented with penicillin/streptomycin/fungizone (0.5%) and bovine serum albumin (1 mg/mL). Amersham radioiodinated endothelin-1 [^125 I]-ET-1 was used at final concentration of 20,000 cpm/0.25 mL (25 pM). […] Second, remove the assay buffers, place the dish on ice, and add 150 μL of cold assay buffer described above to each well. Third, add […] each of cold [^125 I]-ET-1 and competing ligand to the solution (at the same time if possible). Next, place dish in a 37° C. water bath for about 2 hours and gently agitate the dish every 15 minutes. Discard the radioactive incubation mixture in the sink and wash wells 3 times with 1 mL of cold phosphate buffered saline. Last, add […] of 0.25 molar sodium hydroxide, agitate for 1 hour on a rotator, and then transfer the sodium hydroxide extract to gamma counting tubes and count the radioactivity.

For assay [3], the target named is T2, rat recombinant ETB receptor (CHO cells) (Rattus norvegicus, UniProt P21451).
T2 construct: expressed in transfected cells; host or cells: CHO cells
T2 sequence (P21451 27-442): T1 sequence (P21451 27-442)
The experiment in a line: Inhibition of ET-1 stimulated arachidonic acid release (AAR-B). It is filed as cell-based. The note with it: ET-1 0.3 nM. On the procedure:
(§1) In Vitro Inhibition of ET-1 Stimulated Arachidonic Acid Release in Cultured Rabbit Vascular Smooth Muscle Cells (AAR-A) or CHO Cells Expressing Rat Recombinant ETB Receptor (AAR-B) by Compounds of Formula I
(§2) Antagonist activity is measured by the ability of added compounds to reduce endothelin-stimulated arachidonic acid release in cultured vascular smooth muscle cells as arachidonic acid release (AAR). [^3 H] Arachidonic Acid Loading Media (LM) is DME/F12+0.5% fetal calf serum (FCS)×0.25 mCi/mL [^3 H] arachidonic acid (Amersham). Confluent monolayers of cultured rabbit renal artery vascular smooth muscle cells (AAR-A) or CHO cells expressing rat recombinant ETB receptor (AAR-B) were incubated in 0.5 mL of the LM over 18 hours, at 37° C., in 5% CO2. The LM was aspirated and the cells were washed once with the assay buffer (Hank's balanced salt solution [BSS]+10 mM HEPES+fatty acid-free BSA (1 mg/mL)), and incubated for 5 minutes with 1 mL of the prewarmed assay buffer. This solution was aspirated, followed by an additional 1 mL of prewarmed assay buffer, and further incubated for another 5 minutes. A final 5-minute incubation was carried out in a similar manner. The same procedure was repeated with the inclusion of 10 μL of the test compound (1 nM to 1 μM) and 10 μL ET-1 (0.3 nM) and the incubation was extended for 30 minutes. This solution was then collected, […] of scintillation cocktail was added, and the amount of [^3 H] arachidonic acid was determined in a liquid scintillation counter.

The subject of assay [4] is endothelin receptor, cultured rabbit renal artery vascular smooth muscle cells. Briefly: Inhibition of ET-1 stimulated arachidonic acid release (AAR-A). It is filed as cell-based. The note with it: ET-1 0.3 nM. The method, then:
as §1, §2

pIC50: −log10 of the molar value. Square brackets hold non-standard residues; d marks the D form. Peptide text beside a SMILES is read from it. * marks the point of attachment. dGly(5-dibenzosuberyl) = N[C@@H](C(=O)O)C1c2ccccc2CCc2ccccc21; For = O=C*

As a reminder, the pIC50 is the negative decadic logarithm of the IC50, by convention in mol/L. On to `CC[C@H](C)[C@H](NC(=O)[C@H](Cc1ccccc1)NC(=O)[C@H](CC(=O)O)NC(=O)[C@H](CC(C)C)NC(=O)[C@H](NC(C)=O)C1c2ccccc2CCc2ccccc21)C(=O)N[C@@H](Cc1c[nH]c2ccccc12)C(=O)O` [Example 17, Ac-D-Bhg-Leu-Asp-Phe-Ile-Trp] (HELM PEPTIDE1{[ac].[O=C([C@H](N[*:1])C1c2ccccc2CCc2ccccc21)[*:2]].L.D.F.I.W}$$$$V2.0), for which the values for the pIC50 in assay [1] and in assay [2] were 7.52 and 7.17, respectively.
As for `CC[C@H](C)[C@H](NC(=O)[C@H](CC(=O)O)NC(=O)[C@H](CC(C)C)NC(=O)[C@@H](NC(C)=O)C1c2ccccc2CCc2ccccc21)C(=O)N[C@H](C(=O)N[C@@H](Cc1c[nH]c2ccccc12)C(=O)O)[C@@H](C)CC` [Example 4, Ac-L-Bhg-Leu-Asp-Ile-Ile-Trp] (HELM PEPTIDE1{[ac].[O=C([C@@H](N[*:1])C1c2ccccc2CCc2ccccc21)[*:2]].L.D.I.I.W}$$$$V2.0), the pIC50 in assay [1] was 6.15.
Same read-out and setting: next, `CC[C@H](C)[C@H](NC(=O)[C@H](CC(=O)O)NC(=O)[C@H](CCCN=C(N)N)NC(=O)[C@H](NC(C)=O)C1c2ccccc2CCc2ccccc21)C(=O)N[C@H](C(=O)N[C@@H](Cc1c[nH]c2ccccc12)C(=O)O)[C@@H](C)CC` [Example 14, Ac-D-Bhg-Arg-ASp-Ile-Ile-Trp] (HELM PEPTIDE1{[ac].[O=C([C@H](N[*:1])C1c2ccccc2CCc2ccccc21)[*:2]].R.D.I.I.W}$$$$V2.0): 7.40.
As to `CC[C@H](C)[C@H](NC(=O)[C@H](CC(=O)O)NC(=O)[C@H](CC(C)C)NC(=O)[C@H](NC(C)=O)C1c2ccccc2Oc2ccccc21)C(=O)N[C@H](C(=O)N[C@@H](Cc1c[nH]c2ccccc12)C(=O)O)[C@@H](C)CC` [Example 10, Ac-D-Oxn-Leu-Asp-Ile-Ile-Trp] (HELM PEPTIDE1{[ac].[O=C([C@H](N[*:1])C1c2ccccc2Oc2ccccc21)[*:2]].L.D.I.I.W}$$$$V2.0), the pIC50 in assay [1] is 6.26; in assay [2], 6.92.
With `CC[C@H](C)[C@H](NC(=O)[C@H](CC(=O)O)NC(=O)[C@H](CC(C)C)NC(=O)[C@H](N)C1c2ccccc2Sc2ccccc21)C(=O)N[C@H](C(=O)N[C@@H](Cc1c[nH]c2ccccc12)C(=O)O)[C@@H](C)CC` [Example 13, D-Txg-Leu-Asp-Ile-Ile-Trp] (HELM PEPTIDE1{[N[C@@H](C(=O)[*:2])C1c2ccccc2Sc2ccccc21].L.D.I.I.W}$$$$V2.0), the pIC50 is 5.62 in assay [3], 6.42 in assay [1], 6.49 in assay [4] and 6.08 in assay [2].
In the case of `CC[C@H](C)[C@H](NC(=O)[C@H](CC(=O)O)NC(=O)[C@H](CCCNC(=N)N)NC(=O)[C@H](NC(C)=O)C1c2ccccc2CCc2ccccc21)C(=O)N[C@H](C(=O)N[C@@H](Cc1cn(C=O)c2ccccc12)C(=O)O)[C@@H](C)CC` [Example 18, Ac-D-Bhg-Arg-Asp-Ile-Ile-Trp(For)] (Ac-[dGly(5-dibenzosuberyl)]RDIIW(For)-OH), the pIC50 is 5.31 in assay [1] and 7.10 in assay [2].
For `CC[C@H](C)[C@H](NC(=O)[C@@H](NC(=O)[C@H](CC(=O)O)N(C)C(=O)[C@H](CC(C)C)NC(=O)[C@H](NC(C)=O)C1c2ccccc2CCc2ccccc21)[C@@H](C)CC)C(=O)N[C@@H](Cc1c[nH]c2ccccc12)C(=O)O` [Example 15, Ac-D-Bhg-Leu-N-MeAsp-Ile-Ile-Trp] (HELM PEPTIDE1{[ac].[O=C([C@H](N[*:1])C1c2ccccc2CCc2ccccc21)[*:2]].L.[meD].I.I.W}$$$$V2.0), the pIC50 in assay [1] is 5.72.
Consider `CC[C@H](C)[C@H](NC(=O)[C@H](CC(=O)O)NC(=O)[C@H](CC(C)C)NC(=O)[C@H](NC(C)=O)C1c2ccccc2Sc2ccccc21)C(=O)N[C@H](C(=O)N[C@@H](Cc1c[nH]c2ccccc12)C(=O)O)[C@@H](C)CC` [Example 5, Ac-D-Txg-Leu-Asp-Ile-Ile-Trp] (HELM PEPTIDE1{[ac].[O=C([C@H](N[*:1])C1c2ccccc2Sc2ccccc21)[*:2]].L.D.I.I.W}$$$$V2.0), for which the pIC50 in assay [3] was 7.21; in assay [1] it was 6.74; in assay [4], 7.30; in assay [2], 7.74.
As to `CC[C@H](C)[C@H](NC(=O)[C@H](CC(=O)O)NC(=O)[C@H](CC(C)C)NC(=O)[C@@H](NC(C)=O)C1c2ccccc2Oc2ccccc21)C(=O)N[C@H](C(=O)N[C@@H](Cc1c[nH]c2ccccc12)C(=O)O)[C@@H](C)CC` [Example 9, Ac-L-Oxn-Leu-Asp-Ile-Ile-Trp] (HELM PEPTIDE1{[ac].[O=C([C@@H](N[*:1])C1c2ccccc2Oc2ccccc21)[*:2]].L.D.I.I.W}$$$$V2.0), the pIC50 is 6.03 in assay [1] and 7.30 in assay [2].
On to `CC[C@H](C)[C@H](NC(=O)[C@H](CC(=O)O)NC(=O)[C@H](CC(C)C)NC(=O)[C@@H](N)C1c2ccccc2CCc2ccccc21)C(=O)N[C@H](C(=O)N[C@@H](Cc1c[nH]c2ccccc12)C(=O)O)[C@@H](C)CC` [Example 3, L-Bhg-Leu-Asp-Ile-Ile-Trp] (HELM PEPTIDE1{[N[C@H](C(=O)[*:2])C1c2ccccc2CCc2ccccc21].L.D.I.I.W}$$$$V2.0), for which the pIC50 in assay [1] was 5.52; in assay [4], 5.63; in assay [2], 5.60.
Take `CC[C@H](C)[C@H](NC(=O)[C@H](CC(=O)O)NC(=O)[C@H](CC(C)C)NC(=O)[C@@H](NC(C)=O)C1c2ccccc2Sc2ccccc21)C(=O)N[C@H](C(=O)N[C@@H](Cc1c[nH]c2ccccc12)C(=O)O)[C@@H](C)CC` [Example 12, Ac-L-Txg-Leu-Asp-Ile-Ile-Trp] (HELM PEPTIDE1{[ac].[O=C([C@@H](N[*:1])C1c2ccccc2Sc2ccccc21)[*:2]].L.D.I.I.W}$$$$V2.0): the results for the pIC50 in assay [1] and in assay [2] were 5.68 and 5.82, respectively.
On to `CC[C@H](C)[C@H](NC(=O)[C@H](CC(=O)O)NC(=O)[C@H](CC(C)C)NC(=O)[C@@H](N)C1c2ccccc2Sc2ccccc21)C(=O)N[C@H](C(=O)N[C@@H](Cc1c[nH]c2ccccc12)C(=O)O)[C@@H](C)CC` [Example 11, L-Txg-Leu-Asp-Ile-Ile-Trp] (HELM PEPTIDE1{[N[C@H](C(=O)[*:2])C1c2ccccc2Sc2ccccc21].L.D.I.I.W}$$$$V2.0), for which the results for the pIC50 in assay [1] and in assay [2] were 5.68 and 5.35, respectively.
